Reference: patent publication EP0896965A1, “Inhibitors of G-protein-beta, gamma subumit function” (BOEHRINGER MANNHEIM GMBH, priority 1997, dated 1999)
No end group written: not given here.

Key:
[1] = test system: phospholipase C-β2; experiment: Inhibition of Gβγ-stimulated phospholipase C-β2 activity; type: biochemical; conditions: peptide at 100 µM; Gβγ 600 nM
Protocol: (§1) • Figure 1 Inhibition of GTPase activity of Go by His6-tagged phosducin and its N-terminally truncated variants. […] The size of the short form of PhLP is indicated by the line on the top. Analysis with nonlinear curve fitting gave the following IC50-values: phosducin 15±1 nM, phosducin(64-246) 33±3 nM, phosducin( 138-246) 25±2 nM, phosducin(172-246) 95±13 nM, phosducin(204-246) 240±20 nM. Data are mean ± SEM of 3 independent experiments • Figure 2 Direct binding of His6-tagged phosducin and phosducin(204-246) to Gβγ. […] After washing, the Gβγ retained in the pellet was detected by SDS-polyacrylamide gel electrophoresis and Western blotting with antibodies directed against Gβ. • Figure 3 Inhibition of G0GTPase activity by synthetic peptides (top) derived from the C-terminus of phosducin. […] The activity of βARK was determined using rhodopsin in rod outer segments the substrate as in Schroeder and Lohse 1996. […] Phospholipase C-β2 activity was determined with a truncated version of PLC-β2 (PLC-mut) as described by Dietrich et al. (1994). […] Activity is expressed as pmoles of inositol 1.4.5-triphosphate formed per minute. • Figure 5 Amide region of a 500 MHz WATERGATED NOESY spectrum of the peptide phosducin(204-231) in 10 mM Phosphate buffer containing 100 mM NaCI and 10% D2O at pH = 6.5 and 277 K. The mixing time used was 250 ms. […]

[2] = test system: β-adrenergic receptor kinase; experiment: Inhibition of rhodopsin phosphorylation by β-adrenergic receptor kinase in the presence of Gβγ; type: biochemical; conditions: peptide at 100 µM; 1 µM rhodopsin, 2.5 nM βARK-1, 20 nM Gβγ
Protocol: as §1

GDVESFLNEYGLLPEKEM [phosducin(215-232)]
antagonism of the stimulatory effects of Gβγ on the activity of phospholipase Cβ2 [1]: antagonized | antagonism of the stimulatory effects of Gβγ on the activity of the β-adrenergic receptor kinase [2]: antagonized
